Experimental data from patent publication US5274121A, “N-methyl-N-[4-(1-pyrrolidinyl)-2-butynyl]amide congeners as muscarinic agents” (priority 1992, dated 1993).
Entries after “also recorded” stand apart in the source; their conditions may differ. Read-outs that look alike come from different tables or passages of the source.

Key:
[1] = tested on: NG108-15 neuroblastoma x glioma cells (m3 AChR); test: Inhibition of PGE1-stimulated cAMP levels in NG108-15 cells; type: cell-based; details: for inhibition at 100 µM: relative to control with no compounds added, conc. of compounds = 100 μM, read-out: cAMP Inhib; for agonist selectivity, in words: NG108-15 (cAMP) versus SK-N-SH (PI turnover); for agonist activity, in words: Table I assays
Description: (§1) Compounds of the present invention were tested for their binding affinities and activation of second messengers in selective muscarinic cholinergic receptor systems. It is believed that m1 -, m4 -, and m5 AChRs couple exclusively to PI turnover, whereas m2 - and m3 -AChRs couple only to adenylate cyclase inhibition.
(§2) Compounds of the present invention were screened for their biological activity. Assay systems using SK-N-SH human neuroblastoma cells which express only m4 -AChRs coupled to PI turnover, and NG108-15 neuroblastoma x glioma cells which express only m3 AChRs coupled to adenylate cyclase inhibition were used.
Inhibition of PGE1 -stimulated cAMP levels in NG108-15 cells
Cells were plated in 24-well plates and were grown to 90% confluence. The growth media was then replaced with a solution of 1 mM IBMX in DMEM-Hepes (0.5 mL per well) and the cells were incubated for 10 min at 37° C. Agonists were then added at a final concentration of 100 μM, along with PGE1 (final conc, 5 μM), and the cells were incubated for a further 15 min at 37° C. The reaction Was terminated by aspirating the solution and adding 0.5 mL of 0.1N HCl. In order to extract the cAMP from the cells, they were incubated in 0.1 N HCl for 30 min at room temperature. An aliquot (35 50 μL) was removed, lyophilized, and assayed for cAMP by radioimmunoassay.

[2] = target: T1, muscarinic receptors, NG108-15 cell membranes (m3 AChR) (Mus musculus, UniProt P32211); test: Inhibition of [3H]-NMS binding to membranes from NG108-15 cells; details: for inhibition at 100 µM: NG108-15 cells, conc. of compounds = 100 μM; for binding to muscarinic receptors, in words: 3H-NMS binding, NG108-15 and SK-N-SH membranes
T1 construct: membranes from NG108-15 cells; endogenous in cells; host or cells: NG108-15 neuroblastoma x glioma hybrid cells (crude membrane fraction)
T1 sequence (P32211 1-479): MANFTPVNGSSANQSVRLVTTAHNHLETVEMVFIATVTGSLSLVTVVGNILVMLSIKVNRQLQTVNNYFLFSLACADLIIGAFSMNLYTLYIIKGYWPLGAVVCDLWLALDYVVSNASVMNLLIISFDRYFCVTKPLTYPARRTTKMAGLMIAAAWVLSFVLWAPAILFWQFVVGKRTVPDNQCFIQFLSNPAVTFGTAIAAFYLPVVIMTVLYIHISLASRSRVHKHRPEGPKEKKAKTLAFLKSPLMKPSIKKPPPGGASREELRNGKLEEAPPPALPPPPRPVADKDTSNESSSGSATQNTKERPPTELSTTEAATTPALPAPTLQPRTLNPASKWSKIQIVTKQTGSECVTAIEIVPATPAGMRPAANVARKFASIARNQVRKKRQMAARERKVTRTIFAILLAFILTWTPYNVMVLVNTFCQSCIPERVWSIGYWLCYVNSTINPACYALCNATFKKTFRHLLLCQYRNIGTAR
Description: as §2
(§3) Compounds of the present invention were also screened for their relative binding affinities. Assay systems which measured the inhibition of ^3 H-N-methylscopolamine (^3 H-NMS) binding to membranes from NG108-15 cells and membranes from SK-N-SH cells were used.
(§4) Inhibition of [^3 H]-NMS binding
(§5) Cells were grown to confluence, harvested, and a crude membrane fraction was obtained. […] The total volume was 1 mL. The incubation was terminated by rapid filtration over GF/B filters using a Brandel cell harvester. The filters were washed three times with ice-cold 0.9% NaCl, equilibrated in scintillation counting fluid and counted on a Beckman LS 5801 liquid scintillation counter at 47% efficiency. Non-specific binding was determined by coincubation with 1 μM atropine, and amounted to less than 15% of total counts. It was routinely subtracted from the total counts.

[3] = target: T2, muscarinic receptors, SK-N-SH cell membranes (m4 AChR) (Homo sapiens, UniProt P20309); test: Inhibition of [3H]-NMS binding to membranes from SK-N-SH cells; details: SK-N-SH cells; conc. of compounds = 100 μM
T2 construct: membranes from SK-N-SH cells; endogenous in cells; host or cells: SK-N-SH human neuroblastoma cells (crude membrane fraction)
Description: as §2, §3, §4, §5

[4] = tested on: SK-N-SH human neuroblastoma cells (m4 AChR); test: Stimulation of PI turnover in SK-N-SH cells; type: cell-based; details: SK-N-SH cells; for Emax at 100 µM: Homo sapiens, 0.5 h, percent relative to the activity of OXO-M, conc. of compounds = 100 μM, read-out: Pi turnover
Description: as §1, §2
Stimulation of PI turnover in SK-N-SH cells
Cells were plated into 24-well plates at 100,000 cells per well. After 24 hours, they were labeled overnight with 2 μCi per well of [^3 H]-myo-inositol (American Radiolabeled Chemicals, Inc., St. Louis, Mo.; 15 Ci/mM; 2 μL of stock per mL of media). The cells were then rinsed twice with 10 mM LiCl in DMEM-Hepes and the cells were incubated in this solution for 5 min at 37° C. The indicated compound was then added at a final concentration of 100 μM and the cells were incubated for another 30 min at 37° C. The reaction was stopped by aspirating the solution and adding cold methanol to the cells. After transferring the cells to a glass tube and sonicating briefly, chloroform and water were added to make a two-phase system. The upper aqueous phase was applied to 0.6 mL anion exchange columns (AG X8, Bio-Rad) and the columns were washed and total inositol phosphates were eluted with 1M ammonium formate and 0.1M formic acid.

T2 sequence (P20309 whole entry): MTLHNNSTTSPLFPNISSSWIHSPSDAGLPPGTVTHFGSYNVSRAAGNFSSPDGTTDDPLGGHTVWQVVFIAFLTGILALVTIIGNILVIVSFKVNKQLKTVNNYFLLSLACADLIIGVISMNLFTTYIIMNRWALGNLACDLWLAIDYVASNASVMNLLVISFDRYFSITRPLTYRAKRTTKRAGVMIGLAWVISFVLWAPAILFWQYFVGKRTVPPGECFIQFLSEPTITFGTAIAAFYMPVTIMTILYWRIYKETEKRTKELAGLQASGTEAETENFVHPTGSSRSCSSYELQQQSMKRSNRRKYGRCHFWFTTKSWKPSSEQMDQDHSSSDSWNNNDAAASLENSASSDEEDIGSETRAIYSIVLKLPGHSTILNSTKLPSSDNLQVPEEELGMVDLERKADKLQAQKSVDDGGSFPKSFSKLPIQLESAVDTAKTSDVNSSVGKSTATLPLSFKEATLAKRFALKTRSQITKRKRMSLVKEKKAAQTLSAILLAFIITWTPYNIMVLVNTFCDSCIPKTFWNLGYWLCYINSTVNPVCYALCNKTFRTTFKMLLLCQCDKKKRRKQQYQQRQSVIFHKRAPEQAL

Row | inhibition at 100 µM [2] [%] | inhibition at 100 µM [3] [%] | binding to muscarinic receptors, in words [2] | Compound | agonist activity in NG108-15 cells (cAMP inhibition), in words ([1]; NG108-15 cells) | inhibition at 100 µM ([1]; NG108-15 cells) [%] | agonist selectivity, in words [1] | inhibition at 100 µM ([1]; NG108-15, NG108-15 cells) [%] | stimulation of PI turnover, in words [4] | Emax at 100 µM [4] [%] | agonist activity, in words [1]
1 | 32.6 ± 1.5 | 40 ± 2.1 | – | CN(CC#CCN1CCCC1)C(=O)CNC(=O)OC(C)(C)C [Compound 006, N-Methyl-N-[4-(1-pyrrolidinyl)-2-butynyl]-2-(N-Boc-amino) acetamide] | substantial activity | 7 ± 2.9 | – | – | – | – | –
2 | 36.3 ± 3.1 | 45.1 ± 2.5 | – | CN(CC#CCN1CCCC1)C(=O)CCNC(=O)OC(C)(C)C [Compound 016] | substantial activity | 12.5 ± 2.7 | – | – | – | – | –
3 | 24.4 ± 2.5 | 32.1 ± 0.7 | – | CN(CC#CCN1CCCC1)C(=O)CCCNC(=O)OC(C)(C)C [Compound 020] | – | 3.5 ± 1.7 | – | – | – | – | –
4 | 26.7 ± 1.6 | 32.1 ± 2.1 | – | CN(CC#CCN1CCCC1)C(=O)CCCCNC(=O)OC(C)(C)C [Compound 035] | – | 0.5 ± 0.3 | – | – | – | 1 ± 1 | –
5 | 31.9 ± 0.9 | 39.1 ± 2.4 | – | CN(CC#CCN1CCCC1)C(=O)CCCCCNC(=O)OC(C)(C)C [Compound 038] | – | 0 | – | – | – | – | –
6 | 17.9 ± 7.9 | 29.4 ± 1 | – | CC(=O)NCCCCC(=O)N(C)CC#CCN1CCCC1 [Compound 040] | – | 5.2 ± 2.2 | – | – | – | – | –
7 | 22.7 ± 2.8 | 17.4 ± 3.6 | – | CC(=O)NCCCCCC(=O)N(C)CC#CCN1CCCC1 [Compound 041] | – | 3 ± 1.7 | – | – | – | 1 ± 1 | –
8 | 89 ± 2.5 | 92.1 ± 1 | most active | CN(CC#CCN1CCCC1)C(=O)CCCCCCCNC(=O)OC(C)(C)C [Compound 043] | – | 0 | – | – | – | – | inactive as agonists
9 | 77.9 ± 2.4 | 81.4 ± 2.4 | most active | CN(CC#CCN1CCCC1)C(=O)CCCCCCNC(=O)OC(C)(C)C [Compound 045] | – | 0 | – | – | – | – | inactive as agonists
10 | 92.3 ± 3.2 | 93.7 ± 1.8 | most active | CN(CC#CCN1CCCC1)C(=O)CCCCCCCN [Compound 046] | – | 0 | – | – | – | – | inactive as agonists
11 | 50.4 ± 4.9 | 59.1 ± 0.8 | – | CC(=O)NCCCCCCCC(=O)N(C)CC#CCN1CCCC1 [Compound 048] | – | 0 | – | – | – | – | –
12 | 20.4 ± 5.5 | 24.6 ± 3.1 | – | CC(=O)NCCCCCCC(=O)N(C)CC#CCN1CCCC1 [Compound 049] | – | 6.9 ± 2.9 | – | – | – | – | –
13 | 51 | 50 | – | CN(CC#CCN1CCCC1)C(=O)CCCCCNC(=O)CNC(=O)OC(C)(C)C [Compound 050] | – | 0 | – | – | – | – | –
14 | 51 | 60 | – | CN(CC#CCN1CCCC1)C(=O)CCCCCNC(=O)CCNC(=O)OC(C)(C)C [Compound 051] | – | 0 | – | – | – | – | –
15 | 5 | 40 | – | CN(CC#CCN1CCCC1)C(=O)CCCNC(=O)CNC(=O)OC(C)(C)C [Compound 052, N-Methyl-N-[4-(1-pyrrolidinyl)-2-butynyl]-5-(N-[2-(N-Boc-amino)ethanoyl]amino)butanamide] | – | 0 | – | – | – | – | –
16 | 23 | 40 | – | CN(CC#CCN1CCCC1)C(=O)CCCNC(=O)CCNC(=O)OC(C)(C)C [Compound 053] | – | 0 | – | – | – | – | –
17 | 35 | 49 | – | CN(CC#CCN1CCCC1)C(=O)CCCCCNC(=O)c1ccccc1 [Compound 054] | – | 0 | – | – | – | – | –
18 | 16 | 27 | – | CN(CC#CCN1CCCC1)C(=O)CCCNC(=O)c1ccccc1 [Compound 055] | – | 0 | – | – | – | – | –

Row | Compound | inhibition at 100 µM [2] [%] | inhibition at 100 µM [3] [%] | binding to muscarinic receptors, in words [2] | agonist activity in NG108-15 cells (cAMP inhibition), in words ([1]; NG108-15 cells) | inhibition at 100 µM ([1]; NG108-15 cells) [%] | agonist selectivity, in words [1] | inhibition at 100 µM ([1]; NG108-15, NG108-15 cells) [%] | stimulation of PI turnover, in words [4] | Emax at 100 µM [4] [%] | agonist activity, in words [1]
19 | CN(CC#CCN1CCCC1)C(=O)CN [Compound 007, N-Methyl-N-[4-(1-pyrrolidinyl)-2-butynyl]-2-aminoacetamide] | 23.5 ± 4 | 17.3 ± 3.3 | – | most active as agonists in NG108-15 cells; also recorded: approximately half as active as the full agonist oxotremorine-M | – | selective agonists | 26.1 ± 1.6 | inactive in SK-N-SH cells | – | –
20 | CC(=O)NCC(=O)N(C)CC#CCN1CCCC1 [Compound 010, N-Methyl-N-[4-(1-pyrrolidinyl)-2-butynyl]-2-(N-acetylamino)acetamide] | 24 ± 5.4 | 12.5 ± 2.8 | – | substantial activity | – | – | 14.1 ± 2.3 | – | 8 ± 3 | –
21 | CN(CC#CCN1CCCC1)C(=O)CCN [Compound 017] | 15.1 ± 3.5 | 18.1 ± 2.8 | – | most active as agonists in NG108-15 cells; also recorded: approximately half as active as the full agonist oxotremorine-M | – | selective agonists | 20.8 ± 1.7 | inactive in SK-N-SH cells | – | –
22 | CC(=O)NCCC(=O)N(C)CC#CCN1CCCC1 [Compound 018] | 67.7 ± 3.6 | 67.4 ± 3.3 | – | – | – | – | 10.2 ± 4.8 | – | – | –
23 | CN(CC#CCN1CCCC1)C(=O)CCCN [Compound 021] | 12.1 ± 2.2 | 20 ± 1.5 | – | – | – | – | 3.7 ± 2 | – | – | –
24 | CC(=O)NCCCC(=O)N(C)CC#CCN1CCCC1 [Compound 022] | 19.1 ± 1.8 | 15.6 ± 1.6 | – | substantial activity | – | – | 8 ± 3.7 | – | 14 ± 5 | –
25 | CN(CC#CCN1CCCC1)C(=O)CCCCN [Compound 036] | 22.4 ± 3.2 | 34.4 ± 0.3 | – | substantial activity | – | – | 15.8 ± 2.7 | – | – | –
26 | CN(CC#CCN1CCCC1)C(=O)CCCCCN [Compound 039] | 37.9 ± 3.2 | 55.6 ± 1.9 | – | substantial activity | – | – | 14.3 ± 1 | – | – | –
27 | CN(CC#CCN1CCCC1)C(=O)CCCCCCN [Compound 047] | 72.1 ± 2.7 | 81.9 ± 1 | most active | – | – | – | 3 ± 1.2 | – | – | inactive as agonists
